Test results as given in PubChem BioAssay (NCI).
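Where inhibition never reached the appropriate level, the endpoint shown equals the highest concentration tested. Otherwise, values were interpolated linearly from a five-concentration, 48-hour dose response in 96-well plates. Here, GI50 denotes the concentration required for 50% inhibition of growth. Definition used: TGI = concentration required for complete inhibition of growth.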

Columns and labels:
Experiment in all cases: NCI tumour cell line growth inhibition, 48 h
[1] = tested on: HCC-2998 colon
[2] = tested on: ACHN renal
[3] = tested on: KM20L2 colon
[4] = tested on: LOX IMVI melanoma
[5] = tested on: CCRF-CEM leukemia
[6] = tested on: SNB-78 CNS
[7] = tested on: COLO 205 colon
[8] = tested on: OVCAR-3 ovarian
[9] = tested on: HT29 colon
[10] = tested on: HOP-62 NSCLC
[11] = tested on: IGROV1 ovarian
[12] = tested on: TK-10 renal
[13] = tested on: SR leukemia
[14] = tested on: LXFL 529 NSCLC
[15] = tested on: M19-MEL melanoma
[16] = tested on: DMS 114 small cell lung
[17] = tested on: NCI-H460 lung
[18] = tested on: DLD-1 colon
[19] = tested on: KM12 colon
[20] = tested on: SNB-75 CNS
[21] = tested on: UACC-257 melanoma
[22] = tested on: HCT-116 colon
[23] = tested on: SK-OV-3 ovarian
[24] = tested on: SF-295 CNS
[25] = tested on: NCI-H23 lung
[26] = tested on: OVCAR-8 ovarian
[27] = tested on: MOLT-4 leukemia
[28] = tested on: RPMI-8226 leukemia
[29] = tested on: U251 CNS
[30] = tested on: RXF 393 renal
[31] = tested on: DMS 273 small cell lung
[32] = tested on: A549 NSCLC
[33] = tested on: M14 melanoma
[34] = tested on: HCT-15 colon
[35] = tested on: SNB-19 CNS
[36] = tested on: UACC-62 melanoma
[37] = tested on: SW-620 colon
[38] = tested on: OVCAR-4 ovarian
[39] = tested on: SF-539 CNS
[40] = tested on: UO-31 renal
[41] = tested on: NCI-H226 lung
[42] = tested on: SK-MEL-5 melanoma
[43] = tested on: OVCAR-5 ovarian
[44] = tested on: 786-0 renal
[45] = tested on: EKVX NSCLC
[46] = tested on: SF-268 CNS
[47] = tested on: SN12C renal
[48] = tested on: SK-MEL-28 melanoma

With `CC(=O)[O-].CC(=O)[O-].CC(=O)[O-].CC(=O)[O-].CO.CO.CO.[Rh+2].[Rh+2].c1ccc(-c2ccccn2)nc1` the GI50 [1] was greater than 100 µM, the TGI [1] was greater than 100 µM and the GI50 [2] was greater than 100 µM. The TGI [2] was greater than 100 µM, the GI50 [3] was greater than 100 µM and the TGI [3] was greater than 100 µM. For the same compound, the GI50 [4] was greater than 100 µM, the TGI [4] was greater than 100 µM and the GI50 [5] was 44.6 µM. The TGI [5] was greater than 100 µM, the GI50 [6] was greater than 100 µM and the TGI [6] was greater than 100 µM. The GI50 [7] was greater than 100 µM, the TGI [7] was greater than 100 µM and the GI50 [8] was greater than 100 µM. The TGI [8] was greater than 100 µM, the GI50 [9] was greater than 100 µM and the TGI [9] was greater than 100 µM. It also gave a GI50 [10] greater than 100 µM, a TGI [10] greater than 100 µM and a GI50 [11] greater than 100 µM. The TGI [11] was greater than 100 µM, the GI50 [12] was greater than 100 µM and the TGI [12] was greater than 100 µM. It also gave a GI50 [13] greater than 100 µM, a TGI [13] greater than 100 µM and a GI50 [14] of 55.6 µM. The TGI [14] was greater than 100 µM, the GI50 [15] was greater than 100 µM and the TGI [15] was greater than 100 µM. It also gave a GI50 [16] of 62.2 µM, a TGI [16] greater than 100 µM and a GI50 [17] greater than 100 µM. For the same compound, the TGI [17] was greater than 100 µM, the GI50 [18] was greater than 100 µM and the TGI [18] was greater than 100 µM. It also gave a GI50 [19] greater than 100 µM, a TGI [19] greater than 100 µM and a GI50 [20] greater than 100 µM. The TGI [20] was greater than 100 µM, the GI50 [21] was greater than 100 µM and the TGI [21] was greater than 100 µM. The GI50 [22] was greater than 100 µM, the TGI [22] was greater than 100 µM and the GI50 [23] was greater than 100 µM. It also gave a TGI [23] greater than 100 µM, a GI50 [24] greater than 100 µM and a TGI [24] greater than 100 µM. For the same compound, the GI50 [25] was greater than 100 µM, the TGI [25] was greater than 100 µM and the GI50 [26] was greater than 100 µM. For the same compound, the TGI [26] was greater than 100 µM, the GI50 [27] was greater than 100 µM and the TGI [27] was greater than 100 µM. For the same compound, the GI50 [28] was greater than 100 µM, the TGI [28] was greater than 100 µM and the GI50 [29] was greater than 100 µM. It also gave a TGI [29] greater than 100 µM, a GI50 [30] greater than 100 µM and a TGI [30] greater than 100 µM. For the same compound, the GI50 [31] was greater than 100 µM, the TGI [31] was greater than 100 µM and the GI50 [32] was greater than 100 µM. The TGI [32] was greater than 100 µM, the GI50 [33] was greater than 100 µM and the TGI [33] was greater than 100 µM. The GI50 [34] was greater than 100 µM, the TGI [34] was greater than 100 µM and the GI50 [35] was greater than 100 µM. The TGI [35] was greater than 100 µM, the GI50 [36] was greater than 100 µM and the TGI [36] was greater than 100 µM. It also gave a GI50 [37] greater than 100 µM, a TGI [37] greater than 100 µM and a GI50 [38] greater than 100 µM. The TGI [38] was greater than 100 µM, the GI50 [39] was greater than 100 µM and the TGI [39] was greater than 100 µM. The GI50 [40] was greater than 100 µM, the TGI [40] was greater than 100 µM and the GI50 [41] was greater than 100 µM. It also gave a TGI [41] greater than 100 µM, a GI50 [42] greater than 100 µM and a TGI [42] greater than 100 µM. The GI50 [43] was greater than 100 µM, the TGI [43] was greater than 100 µM and the GI50 [44] was greater than 100 µM. The TGI [44] was greater than 100 µM, the GI50 [45] was greater than 100 µM and the TGI [45] was greater than 100 µM. For the same compound, the GI50 [46] was greater than 100 µM, the TGI [46] was greater than 100 µM and the GI50 [47] was greater than 100 µM. The TGI [47] was greater than 100 µM, the GI50 [48] was greater than 100 µM and the TGI [48] was greater than 100 µM.
